Measured values: US20110166079A1, “METHODS OF TREATING CANCER WITH APOE PEPTIDES” (COGNOSCI, INC., priority 2008, published 2011)

Tests used:
Akt kinase = test: LPS-induced phosphorylation of Akt kinase in BV2 microglial cells (Western blot densitometry); type: cell-based, mouse; settings: 10 ng/mL LPS, 1 μM COG112, normalized to actin, FIG. 2C
Protocol: To determine if COG peptides could also suppress activation of the upstream Akt kinase, BV2 microglial cells were treated with 10 ng/mL LPS alone or in the presence of 1 μM COG112 (SEQ ID NO: 2) peptide. Cell lysates were run on 10% polyacrylamide gels and subsequently transferred to nitrocellulose membranes. Blots were probed with an anti-phospho-Akt antibody or an antibody to actin. Densitometry analysis of the western blots was conducted and the signals from phosphorylated Akt kinase were normalized to those from actin.

[1] = test system: BCR/Abl+ K562 CML cell line; test: Growth of BCR/Abl+ K562 CML cells (trypan blue counting); type: cell-based
Protocol: Cells (20 mL) were seeded in a T-75 flask at a concentration of 0.25×10^6 cells/mL. Each day after seeding, 0.20 mL of cell suspension was removed and centrifuged to collect cells. The cell pellet was resuspended in 500 μL of serum free media and 100 μL of trypan blue stain was added and incubated for 5 minutes before counting the […] cells with a hemacytometer.

ERK, Akt, IκK and NFκB = test: Immunoblotting of phospho- and total ERK, Akt, IκK and NFκB in B-CLL cells; type: cell-based, human; settings: 2 μM COG112, 3 hours, relative to untreated cells
Description: The results of the two previous series of experiments indicate that SET overexpression in CLL cells results in decreased PP2A activity which contributes to the persistence of an anti-apoptotic state in these cells. COG peptides, such as COG112, can induce apoptosis in CLL cells, which may occur through the binding of COG peptides to the SET protein, thereby relieving the suppression of PP2A activity. To further elucidate the mechanism of the cytotoxic effect of COG peptides on CLL cells, the effect of COG112 treatment on the phosphorylation state of key signal transduction proteins and PP2A activity in B-CLL cells is evaluated. […]
Immunoblotting is performed on the extracts from COG112 treated and untreated CLL cells to determine the relative levels of phospho-and total-(phosphorylated plus non-phosphorylated) ERK, Akt, IκK and NFκB. Specifically, cell extracts obtained by the method above will be analyzed to determine the protein concentration of each lysate using the BCA assay kit (Pierce). […] Protein bands are visualized and quantitated using an Odyssey Infrared scanner (LiCor). This method allows for simultaneous quantitation of the phospho-Akt using the emission of the 800 nm channel and of the total Akt using the emission of the 680 nm channel. Following the initial read, a rabbit anti-β-Actin antibody is incubated with the membrane for 1 hour and the membrane is washed. […]

PP2A [2] = target: T1, PP2A (Mus musculus, UniProt P63330); test: PP2A activity in RAW cells (immunoprecipitation / phosphate release); type: cell-based; settings: 30 minutes, 2 μM COG112, 10 nM okadaic acid, FIG. 3
T1 construct: cells were lysed and PP2A was immunoprecipitated by adding an antibody targeted to the catalytic C-subunit of PP2A; endogenous in cells; host or cells: mouse macrophagic RAW cells
Protocol: Mouse macrophagic RAW cells were incubated with either 2 μM COG112 (SEQ ID NO: 2), 10 nM okadaic acid (an inhibitor of PP2A), or okadaic acid and COG112. After 30 minutes, cells were lysed and PP2A was immunoprecipitated by adding an antibody targeted to the catalytic C-subunit of PP2A. Half of the immunoprecipitate was separated by SDS-PAGE, blotted on to nitrocellulose, and probed with an anti-PP2AC antibody. The remaining portion was assayed for activity by adding 125 μL assay cocktail containing a phospho-threonine substrate peptide to the immunoprecipitated enzyme. After incubating at 37° C. with shaking, a 25 μL aliquot was removed and added to an ammonium molybdate solution (Upstate) that chelates free phosphate and changes color upon chelate formation. Aliquots were removed at various time intervals and the amount of free phosphate released from the peptide was determined by comparison to a phosphate standard curve. The rate of phosphate release was determined by linear fit to the time course data and was normalized to the relative PP2A concentration. […] PP2A activity was reduced in the presence of okadaic acid alone as expected. […] Thus, the active pool of PP2A in a cell can be regulated by ApoE peptides.

PP2A [3] = test: PP2A activity in K562 CML cells (immunoprecipitation / phosphate release); type: cell-based; settings: COG112 0.5 μM or 1 μM, 24 hours, FIG. 8B
Jurkat T-cells = test: Growth of Jurkat T-cell leukemia cells; type: cell-based, human; settings: 1 μM COG112, FIG. 9
Protocol: To determine whether ApoE peptides could be therapeutic for T-cell leukemia, the effect of COG112 on the growth rate of Jurkat T-cells, a human acute T-cell leukemia cell line, was assessed. Jurkat T-cells (2×10^4 cells per well in a 6 well plate) were grown in 2 mL of media in the absence or presence of 1 μM COG112 added upon plating the cells. Cell growth was measured using a hemacytometer following daily removal of a small aliquot for counting.

T1 sequence (P63330 whole entry): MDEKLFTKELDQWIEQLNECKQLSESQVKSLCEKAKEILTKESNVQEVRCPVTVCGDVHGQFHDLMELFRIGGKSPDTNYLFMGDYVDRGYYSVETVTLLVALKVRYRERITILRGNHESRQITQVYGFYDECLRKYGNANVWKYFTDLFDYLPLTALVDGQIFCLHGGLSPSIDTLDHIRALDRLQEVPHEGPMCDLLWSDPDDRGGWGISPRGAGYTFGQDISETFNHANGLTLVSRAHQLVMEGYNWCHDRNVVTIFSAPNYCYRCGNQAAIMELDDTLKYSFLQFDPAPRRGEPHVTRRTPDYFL

With “Ac-RQIKIWFQNRRMKWKKCLRVRLASHLRKLRKRLL-NH2 (N-terminus and C-terminus assumed) [COG112]” as the substance, how does the “LPS-induced phosphorylation of the Akt kinase” value (Akt kinase) read?
The value was “significantly decreased”.

And the “K562 cell growth at reduced concentrations” value ([1]; 1 μM COG112, 75 nM Imatinib, alone or combined, FIG. 7B)?
The value was “suboptimal inhibition”.

And the K562 cell growth ([1]; dose response of COG112, Imatinib 1 μM positive control, FIG. 7A)?
Its K562 cell growth is “dose dependent inhibition”.

And the “quantity of phosphorylated proteins (ERK, Akt, IκK, NFκB)” value (ERK, Akt, IκK and NFκB)?
The value was “significant reduction”.

What about the “PP2A activity (rate of phosphate release)” value (PP2A [2]) of the same substance?
The value was “increased”.

And the PP2A activity (PP2A [3])?
Its PP2A activity is “robust activation”.

What about the “proliferation of Jurkat T-cells” value (Jurkat T-cells) of the same substance?
Its value is “significantly inhibited”.
